{"source": "patent US20060293231A1", "about": "“Method for enhancing bone formation” (priority 2004, published 2006)", "assay_type_in_all_cases": "cell-based, human", "key": {"[1]": {"tested_on": "platelet-rich plasma (PRP)", "assay": "Clotting time of platelet-rich plasma (visual)", "experimental": "(§1) PRP composites were prepared by mixing PRP and TRAP with bone substitutes commonly utilized in the clinical setting. Twenty four-well plates (Corning Inc., Corning, N.Y.) were coated with 1% bovine serum albumin (Sigma, St. Louis, Mo.) and incubated for 1.5 hours at 37° C. Sterilized BioOss (25 mg, 0.5-1.0 mm), AlloGro (25 mg), and 45S5 Bioactive Glass (25 mg, […]) were uniformly dispersed within the wells. Fresh PRP (0.5 ml) aliquots were then dispensed into the pre-coated 24-well plates, and 30 μl of 10% calcium chloride solution were added to each well. Experiments were performed in triplicate (n=3) with the addition of bovine thrombin (75 units) or thrombin receptor activating peptide (TRAP, H2N-Ser-Phe-Leu-Leu Arg-Asn-NH2). TRAP was used to clot PRP for all bone substitute groups examined. • Growth Factor Release—Effects of Bone Substitute and Incubation Mode\n(§2) PRP (0.5 mL) aliquots were dispensed into 24-well plates precoated with 1% bovine serum albumin (Sigma, St Louis, Mo.). Thirty microliters of 10% CaCl2 solution (American Reagent Laboratories, Shirley, N.Y.) were added to each well. Experiments were performed in triplicate (n=3) with the addition of bovine thrombin (30, 100, 300 units; GenTrac, Middleton, Wis.) or TRAP (10, 50, 100 μmol/L; Bachem Bioscience Inc, King of Prussia, Pa.). At 30 minutes, if still attached, the clots were gently released from the sides of the culture well with a pipette tip. PRP prepared with CaCl2 solution […] the addition of thrombin or TRAP served as the control group.\n(§3) Clotting times were monitored by visualization. Clot retraction was determined by measuring the clot diameter at 1, 2, 4, and 24 hours, and the value was normalized against the well diameter. • Preparation of Platelet-Rich Plasma-Bone Substitute Composites with Thrombin Receptor Agonist Peptide-6\n(§4) After the optimization of TRAP concentration, experiments were repeated with the addition of 25 or 50 mg of bone substitutes. To minimize nonspecific binding, the culture well (Corning Inc, Corning, N.Y.) was precoated with 1% bovine serum albumin (Sigma) and incubated for 1.5 hours at 37° C. Sterilized BioOss (25 mg, 0.5 to 1.0 mm; Osteohealth, Shirley, N.Y.), AlloGro (25 mg; Ceramed, Lakewood, Colo.), and 45S5 Bioactive Glass (25 mg, 300 μm; Mo-Sci, Rolla, Minn.) were uniformly dispersed within the wells. Fresh PRP (0.5 mL) aliquots were then dispensed into the precoated 24-well plates, and 30 μl of 10% CaCl2 solution (American Reagent Laboratories, Shirley, N.Y.) was added to each well. Experiments were performed in triplicate (n=3) with the addition of TRAP (H2N-Ser-Phe-Leu-Leu-Arg-Asn-NH2) to the wells containing bone substitutes. • Growth Factor Release from Platelet-Rich Plasma Prepared with Thrombin or Thrombin Receptor Agonist Peptide-6"}, "[2]": {"tested_on": "PDGF-AB", "assay": "PDGF-AB release from PRP clots and PRP composites (sandwich enzyme immunoassay of supernatant)", "details": "for effect of media exchange on PDGF release: Group 1 (dynamic mode) versus Group 2 (static mode, less frequent exchange)", "experimental": "as §1\n(§5) The temporal release of growth factors was examined as a function of bone substitute and mode of sample incubation. Specifically, the PRP composites were allowed to clot, and all samples were incubated at 37° C. and humidified environment for up to 14 days. The media were exchanged for all groups at 1 day after incubation. The volume of fluid released from the clot was measured and equal volume of fresh Dulbecco's Modification of Eagle's Medium (DMEM, Mediatech, Herdon, Va.) without serum was added back to each well. Subsequently, in the dynamic incubation mode (Group 1), the fluid released from the clot was collected and equal volume of fresh DMEM was added back into the well at 3, 7, and 14 days. In the static mode (Group 2), the media was exchanged only at the designated time points (7 and 14 days). All collected supernatant samples were stored at −70° C. prior to analyses. • Quantification of PDGF and TGFβ\nSupernatants collected from all time points for both Group 1 and 2 were assayed for PDGF-AB and TGFβ content using diagnostic kits from R & D Systems (Minneapolis, Minn.). Both assays are based on a sandwich enzyme immunoassay technique. The PDGF-AB assay uses a pre-coated microtiter plate with a monoclonal antibody to PDGF-AA. Preparation and dilution of samples and standards were performed as directed by the manufacturer. Both the standards and the samples were incubated for 3 hours at room temperature. The plate was washed with buffer and a conjugated antibody to PDGF-BB was added to the wells and incubated at room temperature for an additional 1 hour. The plate was then washed and substrate added for 20 minutes at room temperature. The reaction was stopped and absorbance was determined at 450 nm using a spectrophotometer (SpectraFluor Plus, Tecan, Maennedorf, Switzerland). A standard curve was generated and the PDGF-AB levels (pg/ml) of each sample were determined. The total amount of growth factor was calculated based on the amount of supernatant obtained after clot retraction.\n(§6) The temporal release of growth factors was examined as a function of time and mode of PRP preparation. Specifically, the PRP clotted with thrombin or TRAP was allowed to gel, and all samples were incubated at 37° C. in a humidified environment for up to 14 days. The volume of fluid released from the clot was measured. Growth factor release was assessed at 1, 3, 7, and 14 days. All collected supernatant samples were stored at −70° C. before analysis. • Quantification of Platelet-Derived Growth Factor and Transforming Growth Factor-β\nSupernatants were assayed for PDGF-AB and TGFβ content using diagnostic kits from R & D Systems (Minneapolis, Minn.). Both assays are based on a sandwich enzyme immunoassay technique. The PDGF-AB assay used a precoated microtiter plate with a monoclonal antibody to PDGF-AA. Preparation and dilution of samples and standards were performed as directed by the manufacturer. Both the standards and the samples were incubated for 3 hours at room temperature. […]"}, "[3]": {"tested_on": "platelet-rich plasma (PRP)", "assay": "PRP clot retraction (clot diameter normalized against well diameter; released fluid volume)", "experimental": "as §2, §3, §4, §6"}, "[4]": {"tested_on": "TGFβ", "assay": "TGFβ release from PRP clots and PRP composites (enzyme immunoassay of supernatant)", "details": "for TGFβ release/retention post clotting, comparison between groups: day 1 post clotting, p<0.05", "experimental": "as §1, §5\nTGFβ was assayed with a similar enzyme immunoassay technique. A dilution series of TGFβ standards was prepared in 100 μl volumes in 96-well microtiter plates coated with TGFβ receptor Type II. The sample supernatants (0.025 ml) obtained from PRP composites were diluted with 0.075 ml of phosphate buffer saline solution. The samples were then activated with 0.1 ml of 1.0 N HCl incubated at room temperature for 10 minutes, neutralized by an addition of 0.1 ml of 1.2 N NaOH/0.5 M HEPES (N-[2-hydroxyethyl] piperazine-N-[2-ethanesulfonic acid]). The supernatant fractions were then incubated for 3 hours at room temperature. The wells were then washed and enzyme-conjugated polyclonal antibody to TGFβ1 was added and allowed to incubate for 1.5 hours at room temperature. The reaction was stopped and absorbance was measured at 450 nm using a spectrophotometer (SpectraFluor Plus, Tecan, Maennedorf, Switzerland). A standard curve was generated and the TGFβ levels (pg/ml) of each sample were determined. The total amount of growth factors was calculated based on the amount of supernatant obtained after clot retraction. • Statistical Analyses\nas §6\nTGFβ was assayed with a similar enzyme immunoassay technique. A dilution series of TGFβ standards were prepared in 96-well microtiter plates coated with TGFβ receptor Type II. The sample supernatants (0.025 mL) obtained from PRP composites were diluted with 0.075 mL of phosphate-buffered saline solution. […]"}}, "note": "Values joined by “and” are separate entries in the source; they are usually repeats but may differ in a detail not shown here. Equal values may be shown once. “Also recorded” adds a separate entry of the source."}
{"substance": "H2N-Ser-Phe-Leu-Leu-Arg-Asn-NH2 [TRAP, reference compound]", "values": [{"measurement": "time for the clot to completely solidify", "setting": "[1]; Example 1, TRAP at 100 μm", "result": 14.5, "unit": "min"}, {"measurement": "time for the clot to completely solidify", "setting": "[1]; Example 2, TRAP at 100 μmol/L", "result": 9.25, "unit": "min"}, {"measurement": "PDGF-AB released", "setting": "[2]; Example 1, at 7 days", "result": "11,624 pg"}, {"measurement": "PDGF-AB released", "setting": "[2]; Example 1, day 1", "result": "20,642 pg"}, {"measurement": "PDGF-AB released", "setting": "[2]; Example 2, at 7 days, mean±SD", "result": "2,797.6±612.0 pg"}, {"measurement": "PDGF-AB released", "setting": "[2]; Example 2, day 1, mean±SD", "result": "20,642±1,170.0 pg"}, {"measurement": "effect of media exchange on PDGF release", "setting": "[2]", "result": "no statistically significant effects; also recorded: No significant difference"}, {"measurement": "decrease in the clot diameter", "setting": "[3]; TRAP 50 μmol/L", "result": 15, "unit": "%"}, {"measurement": "decrease in the clot diameter", "setting": "[3]; TRAP 100 μmol/L", "result": 15, "unit": "%"}, {"measurement": "TGFβ retained compared to the thrombin group", "setting": "[4]; Example 1, time not stated (day 1 context)", "result": 39.2, "unit": "%"}, {"measurement": "TGFβ retained, more than the thrombin group", "setting": "[4]; Example 2, at 72 hours", "result": 39.2, "unit": "%"}, {"measurement": "TGFβ release/retention post clotting, comparison between groups", "setting": "[4]", "result": "significantly lower levels"}]}
{"substance": "thrombin: bovine thrombin (GenTrac), serine protease used as standard PRP clotting agent", "values": [{"measurement": "time to complete polymerization of PRP", "setting": "[1]; Example 1, 30 units of thrombin added to 0.5 ml PRP mixture", "result": 6, "unit": "min"}, {"measurement": "time to clot formation", "setting": "[1]; Example 1, 100 units thrombin, 0.5 ml PRP", "result": 1.25, "unit": "min"}, {"measurement": "time to clot formation", "setting": "[1]; Example 1, 300 units thrombin, 0.5 ml PRP", "result": 1.25, "unit": "min"}, {"measurement": "time to complete polymerization of PRP", "setting": "[1]; Example 2, 30 units of thrombin added to 0.5 mL PRP mixture", "result": 6, "unit": "min"}, {"measurement": "time to clot formation", "setting": "[1]; Example 2, 100 units thrombin", "result": 3.25, "unit": "min"}, {"measurement": "PDGF-AB released", "setting": "[2]; Example 1, at 7 days", "result": "5,068 pg"}, {"measurement": "PDGF-AB released", "setting": "[2]; Example 1, day 1", "result": "32,526 pg"}, {"measurement": "PDGF-AB released", "setting": "[2]; Example 2, at 7 days, mean±SD", "result": "1,738.2 ±443.0 pg"}, {"measurement": "PDGF-AB released", "setting": "[2]; Example 2, day 1, mean±SD", "result": "32,526±6,752.4 pg"}, {"measurement": "effect of media exchange on PDGF release", "setting": "[2]", "result": "No significant difference"}, {"measurement": "effect of media exchange on PDGF release", "setting": "[2]; listed as Thrombin", "result": "no statistically significant effects"}, {"measurement": "PDGF-AB release, more than the TRAP group", "setting": "[2]; day 1", "result": "approximately 36%"}, {"measurement": "clot retraction", "setting": "[3]; 30 units of thrombin", "result": 34, "unit": "%"}, {"measurement": "shrinkage of the clot (clot retraction)", "setting": "[3]; 100 units of thrombin, all time points", "result": 43, "unit": "%"}, {"measurement": "volume of supernatant released from the clot", "setting": "[3]; all time points, comparison between groups", "result": "largest release volume"}, {"measurement": "clot retraction", "setting": "[3]; at 24 hours, TRAP with 25 mg bone substitute, thrombin 100 units", "result": "56%±3% and 56%"}, {"measurement": "TGFβ release from the clot after 14 days", "setting": "[4]; after 14 days", "result": "all of the TGFβ present in the original PRP thrombin clots had been released; also recorded: all the TGFβ in thrombin clots was released"}, {"measurement": "TGFβ release/retention post clotting, comparison between groups", "setting": "[4]", "result": "highest amount"}, {"measurement": "TGFβ already released from the clot", "setting": "[4]; within 24 hours, of total TGFβ in original PRP", "result": "over 81.4%"}]}
